Laboratory results: patent US20030096957A1, “AFX (zeta) transcription factor splice form” (priority 2001, published 2003)

Experiments:
Format in all cases: cell-based, human
[1] = system: AFXζ-induced PEPCK p-SEAP activity; assay: PEPCK p-SEAP reporter assay in HepG2 cells transfected with AFXζ
Protocol: (§1) FIG. 4. Effect of insulin on the transcriptional activity of AFXζ. HepG2 cells were transiently transfected with pcDNA6/His-AFXζ and PEPCK p-SEAP (A) or PEPCK IRS-SEAP (B). Twenty-four hours after transfection, cells were treated with insulin at the indicated concentration in fresh media and incubated for another 15-18 hours. SEAP and β-galactosidase activities were measured. The relative activation levels were standardized by comparison to the reporter activity from transfected cells without insulin treatment (A) or untreated cells transfected with the reporter alone (B). All values represent the means±S.D. of 3 independent experiments.
FIG. 5. Effect of bpV (peroxovanadate) and PKB on the transcriptional activity of AFXζ. A. HepG2 cells were transiently transfected with PEPCK p-SEAP and pcDNA6/His-AFXζ. Twenty-four hours after transfection, cells were treated with bpV at the indicated concentration in fresh media and were incubated for another 15-18 hours. The relative activation level was standardized by comparison to the reporter activity from transfection without bpV treatment. B. HepG2 cells were transiently cotransfected with the reporter constructs and pcDNA6/His-AFXζ with (filled bars) or without (open bars) the plasmid encoding myr-Akt1, which constitutively expresses active PKB. Forty-eight hours after transfection, SEAP and β-galactosidase activities were measured. The relative activation levels were standardized comparing with the activity from corresponding transfection with reporter alone. All values represent the means±S.D. of 3 independent experiments.
(§2) FIG. 6. Effect of AICAR on the transcriptional activity of AFXζ. A. HepG2 cells were transiently transfected with AFXζ and PEPCK p-SEAP (A) or PEPCK IRS-SEAP (B). Twenty-four hours after transfection, cells were treated with AICAR at indicated concentration in fresh media and incubated for another 15-18 hours. SEAP and β-galactosidase activities were measured. The relative activation levels were standardized by comparison to the activity from cells without AICAR treatment (A) or untreated cells transfected with the reporter alone (B). All values represent the means±S.D. of 3 independent experiments.
Double-stranded DNA fragments containing each of the IRS elements from the promoters of PEPCK, IGFBP- 1 and G6Pase were cloned into the Nhe I/Bgl II site of pSEAP2-promoter vector (Clontech). Dissected fragments of the PEPCK and IGFBP-1 IRS elements, referred as PEPCK-a, PEPCK-b and IGFBP-1a, IGFBP-1b, respectively, were cloned into the same site of pSEAP2-promoter. In addition, a 501 bp fragment corresponding to the human PEPCK 5′ regulatory sequence (−458 to +43 relative to the transcription start site, abbreviated as PEPCK p) was cloned into the Bgl II/EcoR I site of the same vector. […]

[2] = system: AFXζ-induced PEPCK IRS-SEAP activity; assay: PEPCK IRS-SEAP reporter assay in HepG2 cells transfected with AFXζ
Protocol: as §1, §2
Double-stranded DNA fragments containing each of the IRS elements from the promoters of PEPCK, IGFBP- 1 and G6Pase were cloned into the Nhe I/Bgl II site of pSEAP2-promoter vector (Clontech). Dissected fragments of the PEPCK and IGFBP-1 IRS elements, referred as PEPCK-a, PEPCK-b and IGFBP-1a, IGFBP-1b, respectively, were cloned into the same site of pSEAP2-promoter. […]
The human hepatoma cell line HepG2 was cultured in Dulbecco's Modified Eagle's Medium (DMEM) with 10% Fetal Bovine Serum (FBS, Life Technologies). […] Secreted alkaline phosphatase (SEAP) and β-galactosidase activities were measured using Phospha-Light and Galacto-Star systems (Tropix Inc., Bedford, Mass.), respectively.

HepG2 cells = system: HepG2 cells
Protocol: The human hepatoma cell line HepG2 was cultured in Dulbecco's Modified Eagle's Medium (DMEM) with 10% Fetal Bovine Serum (FBS, Life Technologies). Transient transfection experiments were performed in DMEM supplemented with 10% dialyzed FBS in 24-well plates. A DNA construct (0.2 μg unless otherwise specified) corresponding to IRS-SEAP, pcDNA6/His-AFXα or -AFXζ and CMV-β was added. Each set of reporter assay includes a transfection in which no AFX expression construct was added. In experiments where PKB effect was tested, 0.2 μg myr-Aktl in pUSEamp(+) (Upstate Biotechnology, Lake Placid, N.Y.), which constitutively expresses activated PKB, was included. Lipofectamine 2000 reagent (Life Technologies) was used for DNA transfection following the manufacturer's instruction. For experiment in which the cells were treated with soluble agents, the medium was changed 24 hours after the transfection. Cells were then treated with appropriate concentrations of bpV [potassium bisperoxo(1,1 0-phenanthroline) oxovanadate(V), Alexis Biochemicals, San Diego, Calif.], porcine insulin, or AICAR (5-aminoimidazole-4-carboxamide-1-β-D-ribofuranoside, Sigma, St. Louis, Mo.) in fresh media for another 15-18 hours. Secreted alkaline phosphatase (SEAP) and β-galactosidase activities were measured using Phospha-Light and Galacto-Star systems (Tropix Inc., Bedford, Mass.), respectively.

insulin: porcine insulin used to treat transfected HepG2 cells
induced PEPCK p-SEAP activity compared with the untreated cells ([1]; HepG2, increasing concentrations of insulin, 15-18 hours): 50% | AFXζ-induced PEPCK IRS-SEAP reporter activity ([2]; HepG2, 200 nM insulin): to the basal level | PEPCK IRS-SEAP activity ([2]; HepG2 cells in which exogenous AFXζ had not been introduced): repressed

O.O.O.OO.OO.[K+].[OH-].[V].c1cnc2c(c1)ccc1cccnc12 [bpV, potassium bisperoxo(1,1 0-phenanthroline) oxovanadate(V)]
AFXζ-induced PEPCK p-SEAP reporter activity ([1]; HepG2, 5 μM bpV): below the basal level | lowest concentration repressing AFXζ-induced PEPCK p-SEAP reporter gene activity ([1]; HepG2, 15-18 hours): 0.5 µM | concentration with toxicity in HepG2 cells (reduction of control galactosidase activity) (HepG2 cells): above 5 μM

NC(=O)c1ncn([C@@H]2O[C@H](CO)[C@@H](O)[C@H]2O)c1N [AICAR, 5-aminoimidazole-4-carboxamide-1-β-D-ribofuranoside]
transcriptional activity of AFXζ on the PEPCK promoter, % of untreated cells ([1]; HepG2, 200 μM AICAR): 48% | induced PEPCK IRS-SEAP activity, % of the stimulation ascribed to transfected AFXζ ([2]; HepG2, 200 μM AICAR): 20%
